The assay deals with T1, CXCR7 (Homo sapiens, UniProt P25106).
T1 construct: host or cells: CHO-K1 (PathHunter CHO-K1 CXCR7 b-arrestin cell line, stably transfected)
Kind of assay: PathHunter CHO-K1 CXCR7 b-arrestin recruitment assay (CXCR7 agonistic activity). To be noted: PathHunter CHO-K1 CXCR7 b-arrestin cell line. In kind it is cell-based. The procedure, abridged: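 Stable CHO-K1 line with C-terminally ProLink-tagged CXCR7 and β-arrestin 2–EA fusion; β-arrestin recruitment restores β-gal activity, read by chemiluminescence after 1 h RT detection. Cells seeded 24 h, starved in OPTIMEM 3–4 h, exposed to compounds 90 min at 37 °C in HBSS/HEPES/BSA. Geometric-mean EC50 from repeated measurements.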
In general terms: Activated receptors often draw arrestin, which recruitment assays turn into a signal.

T1 sequence (P25106 whole entry): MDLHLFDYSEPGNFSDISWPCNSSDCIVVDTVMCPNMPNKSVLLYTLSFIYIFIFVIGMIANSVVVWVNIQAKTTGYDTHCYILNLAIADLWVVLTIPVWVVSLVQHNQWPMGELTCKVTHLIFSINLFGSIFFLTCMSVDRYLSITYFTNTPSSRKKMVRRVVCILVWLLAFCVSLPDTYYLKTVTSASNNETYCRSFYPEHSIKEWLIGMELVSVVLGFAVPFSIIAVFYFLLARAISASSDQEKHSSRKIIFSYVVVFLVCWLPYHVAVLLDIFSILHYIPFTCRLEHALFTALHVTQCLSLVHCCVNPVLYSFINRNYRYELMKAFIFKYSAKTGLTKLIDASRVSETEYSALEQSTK
T1 sequence (P32121 whole entry partner): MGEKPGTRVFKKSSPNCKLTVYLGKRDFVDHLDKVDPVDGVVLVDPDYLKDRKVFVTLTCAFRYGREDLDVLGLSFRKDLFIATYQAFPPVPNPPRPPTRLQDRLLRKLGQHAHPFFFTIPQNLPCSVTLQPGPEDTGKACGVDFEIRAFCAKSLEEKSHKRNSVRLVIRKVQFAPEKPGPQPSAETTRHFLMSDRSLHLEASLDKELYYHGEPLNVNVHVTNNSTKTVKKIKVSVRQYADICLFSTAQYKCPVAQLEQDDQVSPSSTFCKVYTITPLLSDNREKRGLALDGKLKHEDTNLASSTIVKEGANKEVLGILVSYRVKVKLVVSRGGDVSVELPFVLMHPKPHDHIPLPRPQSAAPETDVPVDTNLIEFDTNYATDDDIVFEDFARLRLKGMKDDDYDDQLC

A word on the EC50: it is the concentration that produces a half-maximal response. `CCN1CCc2cccc(NCC(=O)N(CCN(C)C(=O)OC(C)(C)C)Cc3ccccc3C(F)(F)F)c2C1` [compound 515] came in with an EC50 of 382 nM.
As for `CC(C)CCN(Cc1ccccc1C(F)(F)F)C(=O)CNc1cccc2c1CCN(CC1CC1)C2` [Example 48, 2-(2-Cyclopropylmethyl-1,2,3,4-tetrahydro-isoquinolin-5-ylamino)-N-(3-methyl-butyl)-N-(2-trifluoromethyl-benzyl)-acetamide], the figure is 52 nM.
In the case of `CCN(Cc1ccccc1Cl)C(=O)/C=C/c1cccc2c1CCN(C(=O)OC(C)(C)C)C2` [Example 92, 5-{(E)-2-[(2-Chloro-benzyl)-ethyl-carbamoyl]-vinyl}-3,4-dihydro-1H-isoquinoline-2-carboxylic acid tert-butyl ester], it took 413 nM to reach a half-maximal effect (EC50).
To `CNCCN(Cc1ccccc1C(F)(F)F)C(=O)CNc1cccc2c1CCN(C(=O)NC(C)(C)C)C2` [compound 406] belongs 80 nM; to `O=C(CNc1cccc2c1CCN(CC1CC1)C2)N(CCc1ccc(F)cc1)Cc1ccccc1` [Example 75, N-Benzyl-2-(2-cyclopropylmethyl-1,2,3,4-tetrahydro-isoquinolin-5-ylamino)-N-[2-(4-fluoro-phenyl)-ethyl]-acetamide], 137 nM; to `CNCCN(Cc1ncccc1C(F)(F)F)C(=O)CNc1cccc2c1CCN(C(=O)C1CCC1)C2` [compound 414, 2-(2-Cyclobutanecarbonyl-1,2,3,4-tetrahydro-isoquinolin-5-ylamino)-N-(2-methylamino-ethyl)-N-(3-trifluoromethyl-pyridin-2-ylmethyl)-acetamide], 37 nM.
On to `CCN1CCc2cccc(NCC(=O)N(Cc3ccccc3C(F)(F)F)C(C)c3ccn(CC)n3)c2C1` (racemic) [compound 521], for which the EC50 worked out at 269 nM. Compared with the last compound, the EC50 is about 7.3-fold higher.
To `COCC(C)N1CCc2c(cccc2NCC(=O)N(CCN(C)C)Cc2ccccc2C(F)(F)F)C1` (racemic) [Example 354, rac-N-(2-Dimethylamino-ethyl)-2-[2-(2-methoxy-1-methyl-ethyl)-1,2,3,4-tetrahydro-isoquinolin-5-ylamino]-N-(2-trifluoromethyl-benzyl)-acetamide] belongs 11 nM.
As for `CCN1CCc2cccc(NCC(=O)N(CCN3CCCC3=O)Cc3ccccc3C(F)(F)F)c2C1` [compound 517], the figure is 302 nM.
As for `CCN1CCc2cccc(NCC(=O)N(CCNC)Cc3ccccc3C(F)(F)F)c2C1` [compound 444, 2-(2-Ethyl-1,2,3,4-tetrahydro-isoquinolin-8-ylamino)-N-(2-methylamino-ethyl)-N-(2-trifluoromethyl-benzyl)-acetamide], the figure is 15 nM.
For `CCC(=O)N1CCc2c(cccc2NCC(=O)N(CCC2CCCN2C)Cc2ccccc2)C1` (racemic) [Example 32, rac-N-Benzyl-N-[2-(1-methyl-pyrrolidin-2-yl)-ethyl]-2-(2-propionyl-1,2,3,4-tetrahydro-isoquinolin-5-ylamino)-acetamide], the EC50 is 28 nM. Compared with the last compound, the EC50 is about 1.9-fold higher.
For the compound `CN(C)CCN(Cc1ccccc1)C(=O)CNc1cccc2c1CCN(CC(F)(F)F)C2` [Example 85, N-Benzyl-N-(2-dimethylamino-ethyl)-2-[2-(2,2,2-trifluoro-ethyl)-1,2,3,4-tetrahydro-isoquinolin-5-ylamino]-acetamide], the EC50 is 187 nM.
To `CN1CCC(N(Cc2ccccc2C(F)(F)F)C(=O)CCc2cccc3c2CCN(C(=O)OC(C)(C)C)C3)CC1` [Example 100, 5-{2-[(1-Methyl-piperidin-4-yl)-(2-trifluoromethyl-benzyl)-carbamoyl]-ethyl}-3,4-dihydro-1H-isoquinoline-2-carboxylic acid tert-butyl ester] belongs 376 nM; to `CN(C)CCN(CCc1ccccc1)C(=O)CNc1cccc2c1CCN(CC1CC1)C2` [Example 36, 2-(2-Cyclopropylmethyl-1,2,3,4-tetrahydro-isoquinolin-5-ylamino)-N-(2-dimethylamino-ethyl)-N-phenethyl-acetamide], 25 nM; to `Cc1ccccc1CCN(CCN(C)C)C(=O)CNc1cccc2c1CCN(CC1CC1)C2` [Example 40, 2-(2-Cyclopropylmethyl-1,2,3,4-tetrahydro-isoquinolin-5-ylamino)-N-(2-dimethylamino-ethyl)-N-(2-o-tolyl-ethyl)-acetamide], 44 nM.
To `O=C(CNc1cccc2c1CCN(CC1CC1)C2)N(CCN1CCCC1)Cc1ccccc1F` [Example 44, 2-(2-Cyclopropylmethyl-1,2,3,4-tetrahydro-isoquinolin-5-ylamino)-N-(2-fluoro-benzyl)-N-(2-pyrrolidin-1-yl-ethyl)-acetamide] belongs 3 nM; to `CS(=O)(=O)NCCN(Cc1ccccc1C(F)(F)F)C(=O)CNc1cccc2c1CCN(CC1CC1)C2` [Example 230, 2-(2-Cyclopropylmethyl-1,2,3,4-tetrahydro-isoquinolin-5-ylamino)-N-(2-methanesulfonylamino-ethyl)-N-(2-trifluoromethyl-benzyl)-acetamide], 81 nM; to `CN(C)CCN(CCc1ccccc1C(F)(F)F)C(=O)CNc1cccc2c1CCN(CC1CC1)C2` [Example 57, 2-(2-Cyclopropylmethyl-1,2,3,4-tetrahydro-isoquinolin-5-ylamino)-N-(2-dimethylamino-ethyl)-N-[2-(2-trifluoromethyl-phenyl)-ethyl]-acetamide], 24 nM.
As for `CC(C)(O)CN(Cc1ncccc1Br)C(=O)CNc1cccc2c1CN(C1CCC1)CC2` [compound 458], the figure is 109 nM; as for `CN1CCC(N(Cc2ccccc2C(F)(F)F)C(=O)CCc2cccc3c2CCN(CC2CC2)C3)CC1` [compound 160, 3-(2-Cyclopropylmethyl-1,2,3,4-tetrahydro-isoquinolin-5-yl)-N-(1-methyl-piperidin-4-yl)-N-(2-trifluoromethyl-benzyl)-propionamide], 15 nM.
On to `CNCCN(Cc1ncccc1C(F)(F)F)C(=O)CNc1cccc2c1CCN(C(=O)CC(C)(C)C)C2` [compound 418], for which the EC50 came to 148 nM.
To `CCCCN(C)CCN(Cc1ccccc1)C(=O)CNc1cccc2c1CCN(C(=O)CC)C2` [Example 31, N-Benzyl-N-[2-(butyl-methyl-amino)-ethyl]-2-(2-propionyl-1,2,3,4-tetrahydro-isoquinolin-5-ylamino)-acetamide] belongs 13 nM.
Compound `CC(C)(O)CN(Cc1ccccc1C(F)(F)F)C(=O)CNc1cccc2c1CCN(CC1CC1)C2` [Example 241, 2-(2-Cyclopropylmethyl-1,2,3,4-tetrahydro-isoquinolin-5-ylamino)-N-(2-hydroxy-2-methyl-propyl)-N-(2-trifluoromethyl-benzyl)-acetamide] came in with an EC50 of 8 nM.
Consider `CC(C)(C)OC(=O)N1CCc2c(/C=C/C(=O)N(Cc3ccccc3)C3CCS(=O)(=O)C3)cccc2C1` (stereo not drawn) [Example 95, 5-{(E)-2-[Benzyl-(1,1-dioxo-tetrahydro-1l6-thiophen-3-yl)-carbamoyl]-vinyl}-3,4-dihydro-1H-isoquinoline-2-carboxylic acid tert-butyl ester], for which the midpoint of the response, the EC50, lay at 432 nM.
To `COCCN1CCc2c(CCC(=O)N(CCN(C)C)Cc3ccccc3C(F)(F)F)cccc2C1` [Example 335, N-(2-Dimethylamino-ethyl)-3-[2-(2-methoxy-ethyl)-1,2,3,4-tetrahydro-isoquinolin-5-yl]-N-(2-trifluoromethyl-benzyl)-propionamide] belongs 23 nM; to `CCN1CCc2c(cccc2NCC(=O)N(Cc2ccccc2C(F)(F)F)C2CCN(C)CC2)C1` [compound 137, 2-(2-Ethyl-1,2,3,4-tetrahydro-isoquinolin-5-ylamino)-N-(1-methyl-piperidin-4-yl)-N-(2-trifluoromethyl-benzyl)-acetamide], 45 nM; to `CCN1CCc2cccc(NCC(=O)N(CCN(C)C)Cc3cccc(C)n3)c2C1` [compound 526, N-(2-Dimethylamino-ethyl)-2-(2-ethyl-1,2,3,4-tetrahydro-isoquinolin-8-ylamino)-N-(6-methyl-pyridin-2-ylmethyl)-acetamide], 44 nM.
`CCN1CCc2cccc(NCC(=O)N(CCN(C)C)Cc3ccccn3)c2C1` [compound 540]: the EC50 was 220 nM.
In the case of `CN(CCN(Cc1ccccc1C(F)(F)F)C(=O)CNc1cccc2c1CCN(CC1CC1)C2)CC(F)(F)F` [Example 278, 2-(2-Cyclopropylmethyl-1,2,3,4-tetrahydro-isoquinolin-5-ylamino)-N-{2-[methyl-(2,2,2-trifluoro-ethyl)-amino]-ethyl}-N-(2-trifluoromethyl-benzyl)-acetamide], the EC50 worked out at 79 nM. This EC50 is about 2.8-fold lower than that of the compound before.
To `CC(C)C(C)N1CCc2c(cccc2NCC(=O)N(CCN(C)C)Cc2ccccc2C(F)(F)F)C1` (racemic) [Example 355, rac-N-(2-Dimethylamino-ethyl)-2-[2-(1,2-dimethyl-propyl)-1,2,3,4-tetrahydro-isoquinolin-5-ylamino]-N-(2-trifluoromethyl-benzyl)-acetamide] belongs 10 nM; to `CNCCN(Cc1ccccc1C(F)(F)F)C(=O)CNc1cccc2c1CCN(C(=O)C(C)C)C2` [compound 387, 2-(2-Isobutyryl-1,2,3,4-tetrahydro-isoquinolin-5-ylamino)-N-(2-methylamino-ethyl)-N-(2-trifluoromethyl-benzyl)-acetamide], 12 nM.
To `CN(C)CCN(Cc1ncccc1Cl)C(=O)/C=C/c1cccc2c1CCN(CC1CC1)C2` [Example 333, (E)-N-(3-Chloro-pyridin-2-ylmethyl)-3-(2-cyclopropylmethyl-1,2,3,4-tetrahydro-isoquinolin-5-yl)-N-(2-dimethylamino-ethyl)-acrylamide] belongs 2 nM.
To `O=C1CCCN1CCN(Cc1ccccc1C(F)(F)F)C(=O)CNc1cccc2c1CCN(CC1CC1)C2` [Example 63, 2-(2-Cyclopropylmethyl-1,2,3,4-tetrahydro-isoquinolin-5-ylamino)-N-[2-(2-oxo-pyrrolidin-1-yl)-ethyl]-N-(2-trifluoromethyl-benzyl)-acetamide] belongs 19 nM.

The record behind these values is patent US9920010B2, “CXCR7 receptor modulators” (IDORSIA PHARMACEUTICALS LTD, priority 2013, dated 2018).
